Source: ChEMBL document CHEMBL1201862, “PubChem BioAssay data set” (2004)
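Cultured in 96-well plates, cells were exposed to test compound for 48 hours across five concentrations. Abbreviation: GI50, concentration required for 50% inhibition of growth.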 Active and inactive are the calls of the source. Rule as the data show it: active = GI50 up to about 1.1 µM and inactive = higher.

Assays:
Test in all cases: NCI tumour cell line growth inhibition, 48 h
786-0 = test system: 786-0
M14 = test system: M14
UACC-62 = test system: UACC-62
EKVX = test system: EKVX
OVCAR-4 = test system: OVCAR-4
SK-OV-3 = test system: SK-OV-3
OVCAR-8 = test system: OVCAR-8
RXF 393 = test system: RXF 393
UO-31 = test system: UO-31
CCRF-CEM = test system: CCRF-CEM
MOLT-4 = test system: MOLT-4
HT-29 = test system: HT-29
KM12 = test system: KM12
PC-3 = test system: PC-3
COLO 205 = test system: COLO 205
RPMI-8226 = test system: RPMI-8226
NCI-H226 = test system: NCI-H226
T47D = test system: T47D
Hs-578T = test system: Hs-578T

SMILES	GI50 (786-0)	GI50 (M14)	GI50 (UACC-62)	GI50 (EKVX)	GI50 (OVCAR-4)	GI50 (SK-OV-3)	GI50 (OVCAR-8)	GI50 (RXF 393)	GI50 (UO-31)	GI50 (CCRF-CEM)	GI50 (MOLT-4)	GI50 (HT-29)	GI50 (KM12)	GI50 (PC-3)	GI50 (COLO 205)	GI50 (RPMI-8226)	GI50 (NCI-H226)	GI50 (T47D)	GI50 (Hs-578T)
O=[N+]([O-])C1(CO)COC(CCc2ccccc2)OC1 (centres undefined)	> 100 µM (inactive)	> 100 µM (inactive)	> 100 µM (inactive)	> 100 µM (inactive)	> 100 µM (inactive)	> 100 µM (inactive)	> 100 µM (inactive)	> 100 µM (inactive)	> 100 µM (inactive)	> 100 µM (inactive)	> 100 µM (inactive)	> 100 µM (inactive)	> 100 µM (inactive)						
CCOC(=O)/C(=C/Nc1c(C)n(C)n(-c2ccccc2)c1=O)C(C)=O	> 100 µM (inactive)	> 100 µM (inactive)	> 100 µM (inactive)	> 100 µM (inactive)	> 100 µM (inactive)	> 100 µM (inactive)	> 100 µM (inactive)	> 100 µM (inactive)	> 100 µM (inactive)	> 100 µM (inactive)	> 100 µM (inactive)		> 100 µM (inactive)	> 100 µM (inactive)	> 100 µM (inactive)	> 100 µM (inactive)	> 100 µM (inactive)		
c1ccc(C2(c3ccccc3)SSC3(S2)C2CC4CC(C2)CC3C4)cc1 (centres undefined)	> 100 µM (inactive)	> 100 µM (inactive)	> 100 µM (inactive)	> 100 µM (inactive)	> 100 µM (inactive)	> 100 µM (inactive)	> 100 µM (inactive)	> 100 µM (inactive)	> 100 µM (inactive)	39.7 µM (inactive)	> 56.6 µM (inactive)	> 100 µM (inactive)	> 100 µM (inactive)			37.2 µM (inactive)			
N#CC(C(=O)/C(=N\NC(N)=O)C(C#N)c1ccc(Cl)cc1)c1ccc(Cl)cc1 (centres undefined)	> 100 µM (inactive)	> 100 µM (inactive)	> 100 µM (inactive)	> 100 µM (inactive)	> 100 µM (inactive)	> 100 µM (inactive)	> 100 µM (inactive)	> 100 µM (inactive)	> 100 µM (inactive)	> 100 µM (inactive)	> 100 µM (inactive)	> 100 µM (inactive)	> 100 µM (inactive)		> 100 µM (inactive)	> 100 µM (inactive)	> 100 µM (inactive)		
CCCCN(CCCC)CC(O)c1cc(-c2ccc(Cl)c(Cl)c2)nc2c(Cl)cc(Cl)cc12 (centres undefined)	> 100 µM (inactive)		> 100 µM (inactive)	49.1 µM (inactive)	> 100 µM (inactive)	> 100 µM (inactive)	> 100 µM (inactive)		66.4 µM (inactive)	65.3 µM (inactive)	46.2 µM (inactive)	> 100 µM (inactive)		36.4 µM (inactive)	> 100 µM (inactive)	37.1 µM (inactive)		37.2 µM (inactive)	
COc1cc2c(cc1OC)C1CN3C(=O)CCC3C(O)C1c1cc(OC)c(OC)cc1-2 (centres undefined)	> 100 µM (inactive)	> 100 µM (inactive)	> 100 µM (inactive)	> 100 µM (inactive)	> 100 µM (inactive)	> 100 µM (inactive)	> 100 µM (inactive)	> 100 µM (inactive)	> 100 µM (inactive)	> 100 µM (inactive)	> 100 µM (inactive)	> 100 µM (inactive)	> 100 µM (inactive)		> 100 µM (inactive)	> 100 µM (inactive)		> 100 µM (inactive)	> 100 µM (inactive)
Cc1ccc(C2=C(c3ccc(C)cc3)C(c3ccc(C)cc3)=C(c3ccc(C)cc3)C2=O)cc1	> 100 µM (inactive)	> 100 µM (inactive)		> 100 µM (inactive)		> 100 µM (inactive)	> 100 µM (inactive)	> 100 µM (inactive)	> 100 µM (inactive)	> 100 µM (inactive)	> 100 µM (inactive)	> 100 µM (inactive)	> 100 µM (inactive)			> 100 µM (inactive)	> 100 µM (inactive)		
CC1(C)Cc2ccccc2C(C)(Cl)C(=O)N1 (centres undefined)	> 10 µM (inactive)	> 10 µM (inactive)	> 10 µM (inactive)	> 10 µM (inactive)	> 10 µM (inactive)		> 10 µM (inactive)	> 10 µM (inactive)	> 10 µM (inactive)	> 10 µM (inactive)	> 10 µM (inactive)	> 10 µM (inactive)	> 10 µM (inactive)	> 10 µM (inactive)	> 10 µM (inactive)	> 10 µM (inactive)	> 10 µM (inactive)	> 10 µM (inactive)	
CCc1ccc(/C(C)=N/NC(N)=S)cc1	> 100 µM (inactive)	> 100 µM (inactive)	31.8 µM (inactive)	> 100 µM (inactive)	37.6 µM (inactive)	> 100 µM (inactive)	> 100 µM (inactive)	47.3 µM (inactive)	> 100 µM (inactive)		17.2 µM (inactive)	90.4 µM (inactive)	> 100 µM (inactive)		> 100 µM (inactive)	> 100 µM (inactive)			
CC(C)CCc1c(Cl)nc(Cl)nc1Cl	20.3 µM (inactive)	3.61 µM (inactive)	12 µM (inactive)	26.2 µM (inactive)	19.7 µM (inactive)	17 µM (inactive)	> 10 µM (inactive)	3.89 µM (inactive)	20.1 µM (inactive)	0.33 µM (active)	0.783 µM (active)	12.8 µM (inactive)	> 10 µM (inactive)	13.6 µM (inactive)		30.7 µM (inactive)	4.44 µM (inactive)		17.9 µM (inactive)
CC[C@H](C)C1=C(OC(C)=O)[N@+]2([O-])Oc3ccc(-c4c(OC(C)=O)c(OC(C)=O)c(-c5ccc(OC(C)=O)cc5)c(OC(C)=O)c4OC(C)=O)cc3O[C@]2([C@@H](C)CC)C(=O)N1OC(C)=O	13.6 µM (inactive)	16.9 µM (inactive)	9.46 µM (inactive)	5.45 µM (inactive)	12.2 µM (inactive)	12.7 µM (inactive)	11.5 µM (inactive)	38.3 µM (inactive)	21.4 µM (inactive)	0.294 µM (active)	11.6 µM (inactive)	15.6 µM (inactive)	14.4 µM (inactive)	8.59 µM (inactive)	8.15 µM (inactive)	9.2 µM (inactive)	17.6 µM (inactive)	10.5 µM (inactive)	
Cc1nn(C(=O)Cc2ccccc2)c2c1C(c1ccc(N(C)C)cc1)SC(=N)N2 (centres undefined)	> 100 µM (inactive)	> 100 µM (inactive)	45.6 µM (inactive)	> 100 µM (inactive)		> 100 µM (inactive)	> 100 µM (inactive)		> 100 µM (inactive)	> 100 µM (inactive)	> 100 µM (inactive)	> 100 µM (inactive)	> 100 µM (inactive)	> 100 µM (inactive)	> 100 µM (inactive)	> 100 µM (inactive)	> 100 µM (inactive)	> 100 µM (inactive)	24.5 µM (inactive)
CCOC(=O)c1c(C)n(Cc2ccccc2)c2c1cc(O)c1[nH]c3c(c12)CCCC3	16.1 µM (inactive)	6.52 µM (inactive)	1.9 µM (inactive)	2.69 µM (inactive)	1.07 µM (active)	10.3 µM (inactive)	6.32 µM (inactive)		2.58 µM (inactive)	2.37 µM (inactive)	2.43 µM (inactive)	13.4 µM (inactive)	3.17 µM (inactive)	2.43 µM (inactive)	5.85 µM (inactive)	2.14 µM (inactive)		2.03 µM (inactive)	2.25 µM (inactive)
NNC(=O)COc1nc(-c2cccs2)nc2ccc(I)cc12	25.5 µM (inactive)	23.1 µM (inactive)	19.8 µM (inactive)	18.9 µM (inactive)	21.4 µM (inactive)	20.6 µM (inactive)	29 µM (inactive)	34.3 µM (inactive)	21.1 µM (inactive)		25.7 µM (inactive)	34.4 µM (inactive)	17.1 µM (inactive)	25.4 µM (inactive)	26.8 µM (inactive)		19.9 µM (inactive)	1.47 µM (inactive)	
CN(C)CCCNc1cnc2cc3ccccc3cc2n1	31 µM (inactive)	21.4 µM (inactive)	15.6 µM (inactive)	28 µM (inactive)	23.8 µM (inactive)	55.1 µM (inactive)	19.6 µM (inactive)	21.6 µM (inactive)		42 µM (inactive)	28.4 µM (inactive)	15 µM (inactive)	20 µM (inactive)	15.4 µM (inactive)	18.3 µM (inactive)	33.3 µM (inactive)	16.8 µM (inactive)		32.1 µM (inactive)
NC(c1ccccc1)(C(F)(F)F)P1(=O)OC(=O)c2ccccc2O1 (centres undefined)	> 100 µM (inactive)	> 100 µM (inactive)	> 100 µM (inactive)	> 100 µM (inactive)	> 100 µM (inactive)	26.9 µM (inactive)	> 100 µM (inactive)	> 100 µM (inactive)	> 100 µM (inactive)		48.8 µM (inactive)	> 100 µM (inactive)	> 100 µM (inactive)	> 100 µM (inactive)	> 100 µM (inactive)	> 100 µM (inactive)	> 100 µM (inactive)	> 100 µM (inactive)	
CCOC(=O)C(CCc1ncnc2c1ncn2Cc1ccccc1)(CCc1ncnc2c1ncn2Cc1ccccc1)C(=O)OCC	41.1 µM (inactive)	54.6 µM (inactive)	26.2 µM (inactive)	63.7 µM (inactive)	59.4 µM (inactive)		64.1 µM (inactive)	32.4 µM (inactive)	2.64 µM (inactive)		13.4 µM (inactive)	42.9 µM (inactive)	46.9 µM (inactive)	27 µM (inactive)	24.2 µM (inactive)	23.6 µM (inactive)	27.7 µM (inactive)		83.2 µM (inactive)
